What was measured:
Type in all cases: cell-based, human
[1] = tested on: TNF-α; assay: LPS-stimulated PBMC cytokine production, multiplex cytokine analysis: TNF-α; conditions: Homo sapiens, PBMC, PBMC 2×10^6 cells/ml, compound 1 hour, then 1 ng/ml LPS 18 hours
Method: (§1) Peripheral blood mononuclear cells (PBMCs) were isolated from the blood of healthy human donors by Ficoll cell separation. The PBMCs were seeded at a concentration of 2×10^6 cells/ml and treated for 1 hour at 37° C. with various concentrations of IMiD compounds or control DMSO (0.25%), before stimulation with 1 ng/ml LPS for 18 hours at 37° C.
(§2) Supernatant samples were subjected to multiplex cytokine analysis (Luminex IS100 instrument) to quantify secreted levels of IL-6, IL-8, IL1-beta (IL-1β), GM-CSF, MDC, MIP-1alpha (MIP-1α), MIP-1beta (MIP-1β) and TNF-alpha (TNF-α) (see e.g. FIGS. 7A-C).
(§3) IC50 (half maximal inhibitory concentration) values were calculated to measure the potency of each IMiD compound in inhibiting LPS-stimulated secretion of each cytokine (see Table 25).

[2] = tested on: MDC; assay: LPS-stimulated PBMC cytokine production, multiplex cytokine analysis: MDC; conditions: Homo sapiens, PBMC, PBMC 2×10^6 cells/ml, compound 1 hour, then 1 ng/ml LPS 18 hours
Method: Peripheral blood mononuclear cells (PBMCs) were isolated from the blood of healthy human donors by Ficoll cell separation. […] Supernatant samples were subjected to multiplex cytokine analysis (Luminex IS100 instrument) to quantify secreted levels of IL-6, IL-8, IL1-beta (IL-1β), GM-CSF, MDC, MIP-1alpha (MIP-1α), MIP-1beta (MIP-1β) and TNF-alpha (TNF-α) (see e.g. FIGS. 7A-C). IC50 (half maximal inhibitory concentration) values were calculated to measure the potency of each IMiD compound in inhibiting LPS-stimulated secretion of each cytokine (see Table 25).

[3] = tested on: IL-8; assay: LPS-stimulated PBMC cytokine production, multiplex cytokine analysis: IL-8; conditions: Homo sapiens; PBMC 2×10^6 cells/ml, compound 1 hour, then 1 ng/ml LPS 18 hours
Method: as §1, §2, §3

[4] = tested on: TNF-alpha; assay: LPS-induced TNF-alpha secretion from PBMCs, overnight pre-treatment (MSD); conditions: overnight 1000 nM lenalidomide, 100 nM pomalidomide, 10 nM iberdomide or 1 nM Compound 1; LPS 24 hours
Method: Fresh PBMCs isolated from healthy volunteers were seeded at a concentration of 1×10^6 cells/ml and treated with the indicated concentration of IMiD drugs/CELMoD agents or DMSO overnight before stimulation with the indicated concentration of LPS. After 24 hours, the cell culture media was collected and IL-6, TNF-alpha and IL1-beta levels in the supernatant were assessed using an MSD assay. ULOQ = Upper limit of quantification.
Fresh peripheral blood mononuclear cells (PBMCs) were isolated from the blood (buffy coat) of healthy human volunteers by Ficoll based cell separation. The isolated PBMCs were seeded at a concentration of 1×10^6 cells/ml and treated with 1000 nM lenalidomide, 100 nM pomalidomide, 10 nM iberdomide, 1 nM Compound 1 (CC-92480) or control DMSO, overnight (~17 hours). The next morning, the PBMCs were stimulated with various concentrations of LPS (Lipopolysaccharides from Escherichia coli O111:B4).
After 24 hours, the cell culture media was collected from the control and stimulated cells, spun down at 300 g for 5 minutes to remove cells and the supernatant was subjected to cytokine analysis to quantify secreted levels of IL-6, TNF-alpha (TNF-α) and IL1-beta (IL-1β) using an MSD assay (see e.g. FIGS. 8A-C).

[5] = tested on: MIP-1α; assay: LPS-stimulated PBMC cytokine production, multiplex cytokine analysis: MIP-1α; conditions: Homo sapiens, PBMC, PBMC 2×10^6 cells/ml, compound 1 hour, then 1 ng/ml LPS 18 hours
Method: as §1, §2, §3

[6] = tested on: IL-6; assay: LPS-induced IL-6 secretion from isolated macrophages (M0) (MSD); conditions: overnight (~17 hours) 1000 nM lenalidomide, 100 nM pomalidomide, 10 nM iberdomide or 1 nM Compound 1; then LPS
Method: Monocytes from healthy volunteers were seeded at a concentration of 3×10^5 cells/ml for 4 days with RPMI 1640 media containing M-CSF (50 ng/mL) (50% media replaced after 2 days) to obtain naive macrophages (M0). At the end of day 4, macrophages were treated with the indicated concentration of IMiD/CELMoD agents overnight (~17 hours). The next morning, the macrophages were stimulated with the indicated concentration of LPS for 8 hours, before IL-6 levels in the supernatant were assessed using an MSD assay.
Peripheral blood mononuclear cells (PBMCs) were isolated from the blood of two healthy human donors by Ficoll cell separation, and then monocytes were isolated from these PBMCs by positive selection using MACS […] magnetic microbeads. The isolated monocytes were seeded at a concentration of 3×10^5 cells/ml and incubated for 4 days with RPMI 1640 media containing M-CSF (50 ng/mL) (50% media replaced after 2 days) to obtain naive macrophages (M0). At the end of day 4, the macrophages were incubated overnight (~17 hours) with 1000 nM lenalidomide, 100 nM pomalidomide, 10 nM iberdomide or 1 nM Compound 1, or control DMSO (0.001%), before stimulation with various concentrations of LPS for IL-6 secretion.
After 6 hours, the cell culture was spun down at 300 g for 5 minutes to remove cells, and the supernatant was subjected to MSD analysis to quantify secreted IL-6.

IC50 [1] | IC50 [2] | IC50 [3] | IC50 [5] | SMILES | LPS-induced secretion of TNF-α from PBMCs [4] | LPS-induced IL-6 secretion from macrophages [6]
0.033 µM | 0.031 µM | 2.9 µM | 0.23 µM | Nc1cccc2c1C(=O)N(C1CCC(=O)NC1=O)C2=O (centres unmarked) [Pomalidomide, 4-amino-2-(2,6-dioxopiperidine-3-yl)isoindoline-1,3-dione] | reduces | diminished
0.22 µM | 0.19 µM | > 10 µM | > 10 µM | Nc1cccc2c1CN(C1CCC(=O)NC1=O)C2=O (centres unmarked) [Lenalidomide, 3-(4-amino-1-oxo-2,3-dihydro-1H-isoindol-2-yl) piperidine-2,6-dione] | reduces | diminished
0.00059 µM | 0.0021 µM | > 10 µM | 0.028 µM | O=C1CC[C@H](N2Cc3c(OCc4ccc(CN5CCOCC5)cc4)cccc3C2=O)C(=O)N1 [Iberdomide, (S)-3-(4-((4-(morpholinomethyl)benzyl)oxy)-1-oxoisoindolin-2-yl)piperidine-2,6-dione] | reduces | diminished
 |  |  |  | N#Cc1ccc(N2CCN(Cc3ccc(COc4cccc5c4CN(C4CCC(=O)NC4=O)C5=O)cc3)CC2)c(F)c1 (stereo not drawn) [Compound 1, 4-(4-(4-(((2-(2,6-dioxopiperidin-3-yl)-1-oxoisoindolin-4-yl)oxy)methyl)benzyl)piperazin-l-yl)-3-fluorobenzonitrile] | reduces | diminished

— patent US20230172923A1, “METHODS OF TREATING CYTOKINE-RELATED ADVERSE EVENTS” (BRISTOL-MYERS SQUIBB COMPANY, priority 2020, published 2023)
